This note sets out measurements from ChEMBL document CHEMBL3739419, “Influence of Sugar Amine Regiochemistry on Digitoxigenin Neoglycoside Anticancer Activity” (ACS Med Chem Lett, 2015).

The assay deals with A549. Put plainly: Anticancer activity against human A549 cells by alamar blue assay. Type of assay: functional, cell-based. On the technique in general: Alamar Blue is a resazurin reagent that responds to reducing activity.
`CON([C@H]1CC[C@@]2(C)[C@H](CC[C@@H]3[C@@H]2CC[C@]2(C)[C@@H](C4=CC(=O)OC4)CC[C@]32O)C1)[C@@H]1O[C@H](CO)[C@@H](O)[C@H](N)[C@H]1O`: half-maximal inhibition (IC50) required 34 nM. Next, `CON([C@H]1CC[C@@]2(C)[C@H](CC[C@@H]3[C@@H]2CC[C@]2(C)[C@@H](C4=CC(=O)OC4)CC[C@]32O)C1)[C@@H]1O[C@H](CO)[C@@H](N)[C@H](O)[C@H]1O`: 20 nM; `CON([C@H]1CC[C@@]2(C)[C@H](CC[C@@H]3[C@@H]2CC[C@]2(C)[C@@H](C4=CC(=O)OC4)CC[C@]32O)C1)[C@@H]1O[C@H](CO)[C@@H](N=[N+]=[N-])[C@H](O)[C@H]1O`: 130 nM; `CON([C@H]1CC[C@@]2(C)[C@H](CC[C@@H]3[C@@H]2CC[C@]2(C)[C@@H](C4=CC(=O)OC4)CC[C@]32O)C1)[C@@H]1OC[C@@H](O)[C@H](N=[N+]=[N-])[C@H]1O`: 17 nM. As to `CON([C@H]1CC[C@@]2(C)[C@H](CC[C@@H]3[C@@H]2CC[C@]2(C)[C@@H](C4=CC(=O)OC4)CC[C@]32O)C1)[C@@H]1O[C@H](CO)[C@@H](O)[C@H](O)[C@H]1O`, the IC50 – broadly, the midpoint of a concentration-inhibition curve – turned out to be 1600 nM. Against the preceding molecule, the IC50 is about 94-fold higher. Molecule `CON([C@H]1CC[C@@]2(C)[C@H](CC[C@@H]3[C@@H]2CC[C@]2(C)[C@@H](C4=CC(=O)OC4)CC[C@]32O)C1)[C@@H]1OC[C@@H](N)[C@H](O)[C@H]1O` displayed a concentration for half-maximal inhibition (IC50) of 43 nM. Under `CON([C@H]1CC[C@@]2(C)[C@H](CC[C@@H]3[C@@H]2CC[C@]2(C)[C@@H](C4=CC(=O)OC4)CC[C@]32O)C1)[C@@H]1O[C@H](CO)[C@@H](O)[C@H](N=[N+]=[N-])[C@H]1O` stands 390 nM; under `CON([C@H]1CC[C@@]2(C)[C@H](CC[C@@H]3[C@@H]2CC[C@]2(C)[C@@H](C4=CC(=O)OC4)CC[C@]32O)C1)[C@@H]1OC[C@@H](O)[C@H](N)[C@H]1O`, 10 nM; under `CON([C@H]1CC[C@@]2(C)[C@H](CC[C@@H]3[C@@H]2CC[C@]2(C)[C@@H](C4=CC(=O)OC4)CC[C@]32O)C1)[C@@H]1OC[C@@H](N=[N+]=[N-])[C@H](O)[C@H]1O`, 34 nM.
